“And” between values parts separate entries of the source, which are not always exact repeats. Identical values can stand only once. Inconclusive results and toxic doses are left out. Rule for the calls: active = survival T/C of 150% or more; inactive = T/C below 125% in these data.
System: BDF1 mice, P388 leukemia ip, median survival T/C
Experiment: NCI In Vivo Anticancer Drug Screen. Data for tumor model P388 Leukemia (intraperitoneal) in B6D2F1 (BDF1) mice
Conditions: endpoint: median survival time, higher = longer survival
Summary of the method: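 Antitumour effect was judged in vivo: survival in drug-treated mice, normalised to that of vehicle-dosed controls, gives the reported T/C.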

[1] = dose: 6.25 mg/kg/injection, schedule: Q01DX009 (ip), vehicle: saline
[2] = dose: 12.5 mg/kg/injection, schedule: Q01DX009 (ip), vehicle: saline
[3] = dose: 50.0 mg/kg/injection, schedule: Q01DX009 (ip), vehicle: saline
[4] = dose: 25.0 mg/kg/injection, schedule: Q04DX003 (ip), vehicle: saline with Tween-80
[5] = dose: 1.56 mg/kg/injection, schedule: Q01DX009 (ip), vehicle: saline
[6] = dose: 3.12 mg/kg/injection, schedule: Q01DX009 (ip), vehicle: saline
[7] = dose: 50.0 mg/kg/injection, schedule: Q01DX009 (ip), vehicle: Klucel (hydroxypropylcellulose) (HPC)
[8] = dose: 75.0 mg/kg/injection, schedule: Q01DX009 (ip), vehicle: saline
[9] = dose: 50.0 mg/kg/injection, schedule: Q01DX009 (ip), vehicle: saline with Tween-80
[10] = dose: 100.0 mg/kg/injection, schedule: Q01DX009 (ip), vehicle: saline with Tween-80
[11] = dose: 12.5 mg/kg/injection, schedule: Q01DX009 (ip), vehicle: saline with Tween-80
[12] = dose: 25.0 mg/kg/injection, schedule: Q01DX009 (ip), vehicle: saline with Tween-80
[13] = dose: 50.0 mg/kg/injection, schedule: Q04DX003 (ip), vehicle: saline with Tween-80
[14] = dose: 100.0 mg/kg/injection, schedule: Q04DX003 (ip), vehicle: saline with Tween-80
[15] = dose: 100.0 mg/kg/injection, schedule: Q04DX003 (ip), vehicle: Klucel (hydroxypropylcellulose) (HPC)
[16] = dose: 200.0 mg/kg/injection, schedule: Q04DX003 (ip), vehicle: Klucel (hydroxypropylcellulose) (HPC)

Measured: T/C

CN1CCC(C=C2c3ccccc3Sc3ccccc32)C1 (stereo unspecified)
inactive: [1] 99 % of control | [2] 95 % of control | dose: 25.0 mg/kg/injection, schedule: Q01DX009 (ip), vehicle: saline 100 % of control | [3] 101 % of control

CC(C)=CBr
inactive: dose: 198.0 mg/kg/injection, schedule: Q01DX005 (ip), vehicle: saline 92 % of control | dose: 300.0 mg/kg/injection, schedule: Q01DX005 (ip), vehicle: saline 100 % of control

NNc1n[nH]c(=S)n1N
inactive: dose: 6.25 mg/kg/injection, schedule: Q04DX003 (ip), vehicle: saline with Tween-80 104 % of control | dose: 12.5 mg/kg/injection, schedule: Q04DX003 (ip), vehicle: saline with Tween-80 100 % of control | [4] 95 % of control

CC(=O)[O][Hg][c]1c(N)c(C)cc(C)c1F
inactive: dose: 0.78 mg/kg/injection, schedule: Q01DX009 (ip), vehicle: saline 93 % of control | [5] 95 % of control | [6] 93 % of control | [1] 95 % of control | [2] 95 % of control

O=C(NNc1ccccc1)C(F)(F)F
inactive: dose: 12.5 mg/kg/injection, schedule: Q01DX009 (ip), vehicle: Klucel (hydroxypropylcellulose) (HPC) 90 % of control | dose: 25.0 mg/kg/injection, schedule: Q01DX009 (ip), vehicle: Klucel (hydroxypropylcellulose) (HPC) 95 % of control | dose: 37.5 mg/kg/injection, schedule: Q04DX003 (ip), vehicle: saline with Tween-80 100 % of control | [7] 110 % of control | dose: 56.25 mg/kg/injection, schedule: Q01DX001 (ip), vehicle: saline with Tween-80 104 % of control | dose: 75.0 mg/kg/injection, schedule: Q04DX003 (ip), vehicle: saline with Tween-80 104 % of control | dose: 112.5 mg/kg/injection, schedule: Q01DX001 (ip), vehicle: saline with Tween-80 100 % of control

C=C1C(=O)O[C@@H]2C[C@@H](C)[C@@H]3[C@@H](OC4OC(COC(C)=O)C(O)C(O)C4O)CC(=O)[C@@]3(C)C[C@H]12 (stereo partly specified)
inactive: dose: 2.8 mg/kg/injection, schedule: Q01DX009 (ip), vehicle: saline 100 % of control | dose: 4.2 mg/kg/injection, schedule: Q01DX009 (ip), vehicle: saline 122 % of control | [3] 100 % of control | [8] 105 % of control

C/C=C/C=C/C(=O)c1ccc(OC)cc1O
inactive: [9] 109 % of control | [10] 109 % of control

O=C(O)COc1ccc(-c2ccc(Br)cc2)cc1
inactive: [9] 90 % of control | dose: 200.0 mg/kg/injection, schedule: Q01DX009 (ip), vehicle: saline with Tween-80 100 % of control | dose: 400.0 mg/kg/injection, schedule: Q01DX009 (ip), vehicle: saline with Tween-80 101 % of control

COc1c(I)cc(/C=C(\C)[N+](=O)[O-])cc1I
inactive: [9] 110 % of control | [10] 112 % of control

C=C(Cl)C(=O)OCC
inactive: dose: 5.0 mg/kg/injection, schedule: Q04DX003 (ip), vehicle: saline 100 % of control | dose: 10.0 mg/kg/injection, schedule: Q04DX003 (ip), vehicle: saline 109 % of control | dose: 20.0 mg/kg/injection, schedule: Q04DX003 (ip), vehicle: saline 100 % of control

CCOC(=O)N/N=C\c1cc(OC)c(OC)c(OC)c1
inactive: dose: 6.25 mg/kg/injection, schedule: Q01DX009 (ip), vehicle: saline with Tween-80 95 % of control | [11] 90 % of control | [12] 90 % of control | [9] 90 % of control | [13] 100 % of control | [14] 108 % of control | dose: 200.0 mg/kg/injection, schedule: Q04DX003 (ip), vehicle: saline with Tween-80 104 % of control

COC1(c2ccccc2)CN(Cc2ccccc2)CCO1 (stereo unspecified)
inactive: [7] 113 % of control | dose: 100.0 mg/kg/injection, schedule: Q01DX009 (ip), vehicle: Klucel (hydroxypropylcellulose) (HPC) 118 % of control | [15] 113 % of control | dose: 200.0 mg/kg/injection, schedule: Q01DX009 (ip), vehicle: Klucel (hydroxypropylcellulose) (HPC) 95 % of control | [16] 113 % of control

O=S(=O)(NCCO)c1ccc(Cl)cc1
inactive: dose: 100.0 mg/kg/injection, schedule: Q01DX001 (ip), vehicle: Klucel (hydroxypropylcellulose) (HPC) 100 % of control | dose: 200.0 mg/kg/injection, schedule: Q01DX001 (ip), vehicle: Klucel (hydroxypropylcellulose) (HPC) 100 % of control | dose: 400.0 mg/kg/injection, schedule: Q01DX001 (ip), vehicle: Klucel (hydroxypropylcellulose) (HPC) 100 % of control

N#CCN1CCOCC1
inactive: [8] 104 % of control | dose: 100.0 mg/kg/injection, schedule: Q04DX003 (ip), vehicle: saline 104 % of control | dose: 150.0 mg/kg/injection, schedule: Q01DX009 (ip), vehicle: saline 95 % of control | dose: 200.0 mg/kg/injection, schedule: Q04DX003 (ip), vehicle: saline 104 % of control

CC(=O)Oc1cc2c(cc1OC(C)=O)C(=O)CCC=C2
inactive: [11] 114 % of control | [12] 109 % of control | [9] 104 % of control

N#CC(C#N)=c1ccc(=C(C#N)C#N)cc1
inactive: [12] 108 % of control | [4] 88 % of control | [9] 108 % of control | [13] 92 % of control | [14] 111 % of control

Cc1cc(-c2ccccc2)c2ccccc2c1N(CC(=O)O)S(=O)(=O)c1ccccc1
inactive: dose: 44.0 mg/kg/injection, schedule: Q01DX009 (ip), vehicle: saline with Tween-80 95 % of control and 105 % of control | dose: 66.0 mg/kg/injection, schedule: Q01DX009 (ip), vehicle: saline with Tween-80 110 % of control | [10] 95 % of control and 120 % of control | dose: 150.0 mg/kg/injection, schedule: Q01DX009 (ip), vehicle: saline with Tween-80 121 % of control

CS/C(=C\c1ccc2cc(C)ccc2[n+]1C)N1CCOCC1
inactive: [5] 112 % of control | [6] 119 % of control

CC(C)(C)NCCC(O)c1cc(C(F)(F)F)nc2c(C(F)(F)F)cccc12 (stereo unspecified)
inactive: [9] 105 % of control | [10] 104 % of control

CC(=O)OCCC/C(=C/c1ccc(/C=C(\CCCOC(C)=O)[N+](=O)[O-])cc1)[N+](=O)[O-]
inactive: dose: 50.0 mg/kg/injection, schedule: Q04DX003 (ip), vehicle: Klucel (hydroxypropylcellulose) (HPC) 96 % of control | [15] 101 % of control | [16] 101 % of control

COc1ccc2c(c1)-c1nn(CCO)c(-c3ccncc3)c1CC2
inactive: dose: 100.0 mg/kg/injection, schedule: Q04DX002 (ip), vehicle: DMSO 100 % of control | dose: 200.0 mg/kg/injection, schedule: Q04DX002 (ip), vehicle: DMSO 99 % of control | dose: 400.0 mg/kg/injection, schedule: Q04DX002 (ip), vehicle: DMSO 103 % of control

Nc1ncccc1C(=O)O
inactive: dose: 62.5 mg/kg/injection, schedule: Q01DX010 (ip), vehicle: saline 90 % of control | dose: 125.0 mg/kg/injection, schedule: Q01DX010 (ip), vehicle: saline 100 % of control | dose: 250.0 mg/kg/injection, schedule: Q01DX010 (ip), vehicle: carboxymethylcellulose (CMC) 113 % of control | dose: 500.0 mg/kg/injection, schedule: Q01DX010 (ip), vehicle: carboxymethylcellulose (CMC) 100 % of control

COc1ccc(Br)cc1/C=C/[N+](=O)[O-]
inactive: [9] 87 % of control

Reference: PubChem BioAssay AID328 (DTP/NCI, 2004)
